Experimental data: paper PMC3914206

Columns and labels:
Experiment in all cases: KiNativ chemical proteomics profiling in HeLa and PC3 cell lysates
Format in all cases: binding
[1] = target: T1, selected panels of kinases in HeLa and PC3 cell lysates (Homo sapiens, UniProt P16591); conditions: 10 uM, peptide TSVAVk[…], labeling site Lys1
T1 construct: endogenous in cells; host or cells: HeLa and PC3 cell lysates

[2] = target: T2, selected panels of kinases in HeLa and PC3 cell lysates (Homo sapiens, UniProt Q9UKI8); conditions: 10 uM, TLK1
T2 construct: endogenous in cells; host or cells: HeLa and PC3 cell lysates
T2 sequence (Q9UKI8 1-766): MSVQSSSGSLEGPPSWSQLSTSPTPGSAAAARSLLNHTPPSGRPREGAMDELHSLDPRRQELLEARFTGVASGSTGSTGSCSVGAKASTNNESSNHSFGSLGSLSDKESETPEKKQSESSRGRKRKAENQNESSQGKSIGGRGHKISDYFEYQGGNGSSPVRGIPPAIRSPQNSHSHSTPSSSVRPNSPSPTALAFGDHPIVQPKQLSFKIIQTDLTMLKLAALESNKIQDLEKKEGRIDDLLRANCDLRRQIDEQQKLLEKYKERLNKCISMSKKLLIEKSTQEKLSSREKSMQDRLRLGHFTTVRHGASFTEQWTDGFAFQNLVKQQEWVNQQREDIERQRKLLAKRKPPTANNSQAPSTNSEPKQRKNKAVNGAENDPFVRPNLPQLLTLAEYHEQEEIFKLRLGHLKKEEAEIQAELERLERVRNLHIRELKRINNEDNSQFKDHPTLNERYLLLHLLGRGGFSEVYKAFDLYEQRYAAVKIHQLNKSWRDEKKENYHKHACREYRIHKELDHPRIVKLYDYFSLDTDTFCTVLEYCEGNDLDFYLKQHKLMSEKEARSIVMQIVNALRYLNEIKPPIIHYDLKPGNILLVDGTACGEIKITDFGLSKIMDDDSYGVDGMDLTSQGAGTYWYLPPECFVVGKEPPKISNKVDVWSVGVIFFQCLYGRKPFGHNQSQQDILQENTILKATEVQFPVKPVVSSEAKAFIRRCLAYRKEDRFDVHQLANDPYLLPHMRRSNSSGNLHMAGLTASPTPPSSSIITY

[3] = target: T3, selected panels of kinases in HeLa and PC3 cell lysates (Homo sapiens, UniProt Q8TD19); conditions: 10 uM
T3 construct: endogenous in cells; host or cells: HeLa and PC3 cell lysates
T3 sequence (Q8TD19 1-979): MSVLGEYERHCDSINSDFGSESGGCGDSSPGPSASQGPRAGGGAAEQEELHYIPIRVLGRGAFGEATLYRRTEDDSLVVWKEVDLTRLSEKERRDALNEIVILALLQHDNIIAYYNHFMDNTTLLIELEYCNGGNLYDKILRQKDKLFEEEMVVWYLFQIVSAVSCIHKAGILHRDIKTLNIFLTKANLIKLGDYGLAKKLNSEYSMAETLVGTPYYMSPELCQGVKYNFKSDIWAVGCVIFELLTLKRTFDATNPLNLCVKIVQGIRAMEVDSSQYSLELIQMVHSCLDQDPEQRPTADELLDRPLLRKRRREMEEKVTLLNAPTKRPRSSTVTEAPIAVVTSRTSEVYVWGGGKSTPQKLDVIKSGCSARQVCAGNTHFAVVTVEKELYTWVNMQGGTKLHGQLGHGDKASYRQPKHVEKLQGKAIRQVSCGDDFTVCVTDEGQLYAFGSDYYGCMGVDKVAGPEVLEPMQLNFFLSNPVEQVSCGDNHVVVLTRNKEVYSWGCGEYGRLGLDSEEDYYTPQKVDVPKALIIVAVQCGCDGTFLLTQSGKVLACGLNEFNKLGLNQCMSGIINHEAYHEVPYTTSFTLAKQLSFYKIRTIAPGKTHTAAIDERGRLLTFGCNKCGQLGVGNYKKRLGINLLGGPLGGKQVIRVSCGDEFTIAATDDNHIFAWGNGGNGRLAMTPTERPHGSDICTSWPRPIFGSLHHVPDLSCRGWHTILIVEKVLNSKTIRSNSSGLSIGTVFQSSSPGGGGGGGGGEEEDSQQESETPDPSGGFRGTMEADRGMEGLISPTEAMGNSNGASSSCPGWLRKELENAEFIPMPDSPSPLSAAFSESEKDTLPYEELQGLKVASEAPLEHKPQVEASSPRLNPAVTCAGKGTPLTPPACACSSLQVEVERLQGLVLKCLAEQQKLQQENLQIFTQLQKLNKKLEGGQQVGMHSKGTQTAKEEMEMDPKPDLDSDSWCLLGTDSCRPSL

[4] = target: T4, selected panels of kinases in HeLa and PC3 cell lysates (Homo sapiens, UniProt Q13233); conditions: 10 uM; proteome HEL; peptide DVk[…]; labeling site Lys2
T4 construct: endogenous in cells; host or cells: HeLa and PC3 cell lysates
T4 sequence (Q13233 whole entry): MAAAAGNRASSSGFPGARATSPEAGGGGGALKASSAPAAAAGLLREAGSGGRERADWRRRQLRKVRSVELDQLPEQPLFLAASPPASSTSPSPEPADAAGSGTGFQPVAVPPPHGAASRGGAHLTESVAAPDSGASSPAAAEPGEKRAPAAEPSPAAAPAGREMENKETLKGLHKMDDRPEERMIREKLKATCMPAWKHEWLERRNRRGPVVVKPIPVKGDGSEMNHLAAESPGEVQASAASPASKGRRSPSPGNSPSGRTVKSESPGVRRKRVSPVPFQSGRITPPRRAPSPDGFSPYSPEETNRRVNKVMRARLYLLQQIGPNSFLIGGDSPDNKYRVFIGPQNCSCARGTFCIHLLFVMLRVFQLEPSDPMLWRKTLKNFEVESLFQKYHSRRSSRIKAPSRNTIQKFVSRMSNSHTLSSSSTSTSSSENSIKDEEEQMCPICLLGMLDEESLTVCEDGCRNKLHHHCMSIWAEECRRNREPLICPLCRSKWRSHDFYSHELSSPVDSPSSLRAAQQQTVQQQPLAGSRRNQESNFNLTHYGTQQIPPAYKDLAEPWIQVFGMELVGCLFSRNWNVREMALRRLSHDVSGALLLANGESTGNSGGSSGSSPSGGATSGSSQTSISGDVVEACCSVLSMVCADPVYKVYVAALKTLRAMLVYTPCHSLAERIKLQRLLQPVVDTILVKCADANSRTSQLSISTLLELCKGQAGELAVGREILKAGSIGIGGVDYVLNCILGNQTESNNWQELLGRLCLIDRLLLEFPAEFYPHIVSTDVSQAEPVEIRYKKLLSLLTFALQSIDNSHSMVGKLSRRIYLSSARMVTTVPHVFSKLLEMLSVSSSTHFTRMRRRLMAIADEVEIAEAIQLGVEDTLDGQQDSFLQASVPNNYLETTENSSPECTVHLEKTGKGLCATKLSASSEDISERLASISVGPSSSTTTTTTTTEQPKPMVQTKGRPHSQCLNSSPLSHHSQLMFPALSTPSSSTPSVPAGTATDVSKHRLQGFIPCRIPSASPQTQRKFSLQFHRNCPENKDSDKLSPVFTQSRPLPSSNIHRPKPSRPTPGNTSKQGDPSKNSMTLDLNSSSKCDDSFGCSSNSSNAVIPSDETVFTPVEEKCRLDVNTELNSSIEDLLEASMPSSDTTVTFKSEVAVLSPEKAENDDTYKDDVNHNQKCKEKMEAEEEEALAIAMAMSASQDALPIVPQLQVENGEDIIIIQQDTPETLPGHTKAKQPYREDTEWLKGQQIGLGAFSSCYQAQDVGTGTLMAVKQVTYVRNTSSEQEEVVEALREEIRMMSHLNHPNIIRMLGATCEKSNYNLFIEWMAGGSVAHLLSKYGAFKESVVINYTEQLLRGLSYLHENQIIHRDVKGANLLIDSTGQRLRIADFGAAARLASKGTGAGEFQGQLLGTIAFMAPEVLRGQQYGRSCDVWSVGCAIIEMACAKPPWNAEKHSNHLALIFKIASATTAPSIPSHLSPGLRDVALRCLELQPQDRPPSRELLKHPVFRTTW

[5] = target: T5, selected panels of kinases in HeLa and PC3 cell lysates (Homo sapiens, UniProt Q13043); conditions: 10 uM, peptide […]k[…], labeling site Lys1
T5 construct: endogenous in cells; host or cells: HeLa and PC3 cell lysates
T5 sequence (Q13043 1-487): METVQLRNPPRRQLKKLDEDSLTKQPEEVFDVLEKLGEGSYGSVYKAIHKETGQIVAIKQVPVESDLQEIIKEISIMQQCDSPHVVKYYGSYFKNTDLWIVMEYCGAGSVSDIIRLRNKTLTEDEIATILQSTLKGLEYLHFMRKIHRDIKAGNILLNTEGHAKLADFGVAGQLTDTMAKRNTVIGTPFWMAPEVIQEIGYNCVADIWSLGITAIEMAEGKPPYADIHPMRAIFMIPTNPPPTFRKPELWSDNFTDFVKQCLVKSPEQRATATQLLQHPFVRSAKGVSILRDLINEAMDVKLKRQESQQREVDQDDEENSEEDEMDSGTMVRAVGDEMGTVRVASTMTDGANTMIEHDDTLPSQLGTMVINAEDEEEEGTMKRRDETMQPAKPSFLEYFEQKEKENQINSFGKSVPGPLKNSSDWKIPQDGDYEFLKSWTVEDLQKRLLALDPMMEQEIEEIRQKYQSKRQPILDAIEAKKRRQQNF

[6] = target: T6, selected panels of kinases in HeLa and PC3 cell lysates (Homo sapiens, UniProt P54760); conditions: 10 uM; proteome PC3; peptide […]kIPIR; labeling site Activation Loop
T6 construct: endogenous in cells; host or cells: HeLa and PC3 cell lysates
T6 sequence (P54760 16-987): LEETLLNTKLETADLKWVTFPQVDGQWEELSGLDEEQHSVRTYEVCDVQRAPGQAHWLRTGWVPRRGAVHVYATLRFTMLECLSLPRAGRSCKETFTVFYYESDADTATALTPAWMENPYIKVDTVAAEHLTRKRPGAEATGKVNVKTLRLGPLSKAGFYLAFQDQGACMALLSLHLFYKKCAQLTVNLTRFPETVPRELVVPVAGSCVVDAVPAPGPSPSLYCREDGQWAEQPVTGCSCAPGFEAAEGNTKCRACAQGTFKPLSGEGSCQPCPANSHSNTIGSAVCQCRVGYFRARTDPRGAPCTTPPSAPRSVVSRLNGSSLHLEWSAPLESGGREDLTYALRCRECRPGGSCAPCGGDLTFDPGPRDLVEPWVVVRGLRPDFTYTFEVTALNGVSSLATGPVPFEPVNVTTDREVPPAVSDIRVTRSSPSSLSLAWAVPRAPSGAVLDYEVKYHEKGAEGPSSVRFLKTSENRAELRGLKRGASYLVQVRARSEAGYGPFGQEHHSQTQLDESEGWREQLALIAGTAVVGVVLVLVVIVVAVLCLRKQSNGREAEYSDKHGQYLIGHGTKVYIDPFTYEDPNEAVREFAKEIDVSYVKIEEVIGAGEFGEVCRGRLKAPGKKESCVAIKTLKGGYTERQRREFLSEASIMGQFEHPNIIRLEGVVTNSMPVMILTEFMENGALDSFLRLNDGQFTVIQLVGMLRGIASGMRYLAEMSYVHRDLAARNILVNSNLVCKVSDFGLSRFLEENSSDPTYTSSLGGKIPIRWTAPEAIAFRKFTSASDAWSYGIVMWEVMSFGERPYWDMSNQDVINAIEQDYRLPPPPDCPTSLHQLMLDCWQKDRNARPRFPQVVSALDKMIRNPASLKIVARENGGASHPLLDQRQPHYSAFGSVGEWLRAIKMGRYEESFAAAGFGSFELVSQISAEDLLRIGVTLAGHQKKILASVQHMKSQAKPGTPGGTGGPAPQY

[7] = target: T7, selected panels of kinases in HeLa and PC3 cell lysates (Homo sapiens, UniProt Q16644); conditions: 10 uM; proteome HEL; peptide […]k[…]; labeling site ATP Loop
T7 construct: endogenous in cells; host or cells: HeLa and PC3 cell lysates
T7 sequence (Q16644 whole entry): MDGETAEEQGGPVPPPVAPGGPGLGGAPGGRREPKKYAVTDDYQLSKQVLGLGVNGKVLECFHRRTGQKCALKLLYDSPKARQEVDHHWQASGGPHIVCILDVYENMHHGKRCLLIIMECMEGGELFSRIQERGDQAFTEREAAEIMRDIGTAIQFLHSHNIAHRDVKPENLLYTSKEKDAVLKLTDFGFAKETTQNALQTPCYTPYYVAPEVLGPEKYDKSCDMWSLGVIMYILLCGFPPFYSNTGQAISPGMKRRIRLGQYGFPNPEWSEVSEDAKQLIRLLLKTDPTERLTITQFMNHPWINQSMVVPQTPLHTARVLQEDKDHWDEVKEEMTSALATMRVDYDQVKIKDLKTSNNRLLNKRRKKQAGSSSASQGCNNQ

[8] = peptide YAAVkIHQLNK, proteome HEL, labeling site Lys1
[9] = peptide YAAVkIHQLNK, proteome PC3, labeling site Lys1
[10] = peptide […]k[…], proteome HEL, labeling site Lys2
[11] = peptide […]k[…], proteome PC3, labeling site Lys2
[12] = proteome HEL, peptide DIkTLNIFLTK, labeling site Lys2
[13] = proteome HEL, peptide LGDYGLAkK, labeling site Activation Loop
[14] = proteome PC3, peptide DIkTLNIFLTK, labeling site Lys2
[15] = proteome PC3, peptide LGDYGLAkK, labeling site Activation Loop

T1 sequence (P16591 whole entry): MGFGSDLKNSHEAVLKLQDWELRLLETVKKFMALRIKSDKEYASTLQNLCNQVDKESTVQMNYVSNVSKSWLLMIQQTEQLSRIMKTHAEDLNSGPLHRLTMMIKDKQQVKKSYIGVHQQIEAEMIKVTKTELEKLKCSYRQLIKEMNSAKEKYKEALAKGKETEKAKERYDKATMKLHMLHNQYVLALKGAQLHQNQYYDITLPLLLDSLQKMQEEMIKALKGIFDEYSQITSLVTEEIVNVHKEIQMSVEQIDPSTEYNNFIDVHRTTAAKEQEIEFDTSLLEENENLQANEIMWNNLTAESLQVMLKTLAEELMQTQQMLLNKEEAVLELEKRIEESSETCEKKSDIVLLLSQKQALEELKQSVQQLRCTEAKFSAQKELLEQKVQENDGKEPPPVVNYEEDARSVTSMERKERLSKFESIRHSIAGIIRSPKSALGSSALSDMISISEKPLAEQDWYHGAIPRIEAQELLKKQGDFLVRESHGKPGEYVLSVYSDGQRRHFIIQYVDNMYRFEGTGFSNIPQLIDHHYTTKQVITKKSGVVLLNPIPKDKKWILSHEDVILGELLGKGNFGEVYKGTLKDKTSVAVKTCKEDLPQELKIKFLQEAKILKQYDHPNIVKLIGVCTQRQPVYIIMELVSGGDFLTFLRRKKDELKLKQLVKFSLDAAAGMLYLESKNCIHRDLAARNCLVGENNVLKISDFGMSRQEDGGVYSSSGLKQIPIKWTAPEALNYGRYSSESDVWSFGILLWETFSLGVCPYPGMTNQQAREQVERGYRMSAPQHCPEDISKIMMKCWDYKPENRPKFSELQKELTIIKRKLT

SMILES: COc1cc(C(=O)N2CCC(N3CCN(C)CC3)CC2)ccc1Nc1ncc2c(n1)N(C1CCCC1)c1ccccc1C(=O)N2C [Compound 25, 11-cyclopentyl-2-((2-methoxy-4-(4-(4-methylpiperazin-1-yl)piperidine-1-carbonyl)phenyl)amino)-5-methyl-5H-benzo[e]pyrimido[5,4-b][1,4]diazepin-6(11H)-one]
- % Inhibiton, FER ([1]; proteome HEL): 21.3%
- % Inhibiton, FER ([1]; proteome PC3): 28.9%
- % Inhibition TLK1 [2, 8]: -21.7%
- % Inhibition TLK1 [2, 9]: -9.7%
- % Inhibition TLK1 [2, 10]: -8.4%
- % Inhibition TLK1 [2, 11]: -12.2%
- % Inhibiton, NEK9 [3, 12]: 14.6%
- % Inhibiton, NEK9 [3, 13]: 1.9%
- % Inhibiton, NEK9 [3, 14]: 1.6%
- % Inhibiton, NEK9 [3, 15]: 6.7%
- % Inhibiton, MAP3K1 [4]: 36.1%
- % Inhibiton, MST1 ([5]; proteome HEL): -9.9%
- % Inhibiton, MST1 ([5]; proteome PC3): -0.157%
- % Inhibiton, EphB4 [6]: -13.0%
- % Inhibiton, MAPKAPK3 [7]: 1.8%

SMILES: CCOc1cc(C(=O)N2CCC(N3CCN(C)CC3)CC2)ccc1Nc1ncc2c(n1)N(C1CCCC1)c1ccccc1C(=O)N2C [Compound 26]
- % Inhibiton, FER ([1]; proteome HEL): 24.7%
- % Inhibiton, FER ([1]; proteome PC3): 12%
- % Inhibition TLK1 [2, 8]: 35.7%
- % Inhibition TLK1 [2, 9]: 6.2%
- % Inhibition TLK1 [2, 10]: 3.6%
- % Inhibition TLK1 [2, 11]: 6.8%
- % Inhibiton, NEK9 [3, 12]: 7.6%
- % Inhibiton, NEK9 [3, 13]: -3%
- % Inhibiton, NEK9 [3, 14]: -4.7%
- % Inhibiton, NEK9 [3, 15]: 6.4%
- % Inhibiton, MAP3K1 [4]: 2.2%
- % Inhibiton, MST1 ([5]; proteome HEL): 15.9%
- % Inhibiton, MST1 ([5]; proteome PC3): -17.2%
- % Inhibiton, EphB4 [6]: 17%
- % Inhibiton, MAPKAPK3 [7]: 20.8%
